We go through one molecule from patent publication US8829213B2, “Liver X receptor agonists” (The University of Chicago, priority 2009, dated 2014).

SMILES strings stand for the structures.

The test system of one test is human LXRα or LXRβ. In words: Luciferase-based reporter gene assay for LXR agonism. In kind it is cell-based. The settings on record: HEK293 cells co-transfected with human LXRα or LXRβ, 48 hours. Here is the method:
The ability of Compound 1 to act as an LXR agonist was tested using a luciferase-based reporter gene assay according to the method described in Graham et al., Virology, 1973, 52:456. The assay is described below:
Wells of a 48-well plate were seeded with 50,000 human embryonic kidney (HEK293) cells in 0.25 mL of Dulbecco's modified Eagle's media containing 10% charcoal-stripped fetal bovine serum (DMEM+10% CS-FBS). HEK293 cells were co-transfected with various plasmid DNAs using a calcium phosphate co-precipitation method (Graham et al., Virology, 1973, 52:456). To each well was added 0.25 mL of a transfection mix (1.36 mL transfection components and 11.5 mL DMEM+10% CS-FBS) containing 60 ng of a firefly luciferase-based reporter plasmid, 60 ng of pSG5 containing human LXRα or LXRβ cDNA, 0.6 ng of the sea pansy luciferase normalization plasmid phRL-TK (Promega), and 220 ng of pBS/SK+II. […] Firefly and sea pansy luciferase activities in the lysate were measured using a dual luciferase assay (Promega) and a Monolight luminometer. […] Fold activation of the firefly luciferase reporter plasmid was calculated from normalized relative light units in the presence and absence of the test compound.

Test [1] deals with LDLR−/− mice. In words: Reduction of plasma cholesterol and triglyceride levels in LDLR−/− mice fed an atherogenic diet. The settings on record: 8 weeks. Type of test: in vivo. Here is the method:
(§1) Eight-week old male LDLR−/− mice on a C57BL/6 background (obtained from Jackson Laboratory) were fed an atherogenic diet (TD94059, Harlan TEKLAD, Madison, Wis.) for 8 weeks. During the same period, the mice received Compound 1 daily by gavage at a dose of 3 or 5 mg/kg in a microemulsion prepared by the method described in Gao et al., Int J Pharm 1998, 161:75-86). The control group (vehicle) received a microemulsion without Compound 1. After 8 weeks, the mice were fasted for 4 hours and anesthetized with ketamine (100 mg/kg) and xylazine (10 mg/kg). A blood sample was collected from the retro-orbital plexus of each mouse. 200 μl of plasma was fractionated on tandem Superose 6 fast protein liquid chromatography columns (Reardon et al., 2001). Cholesterol and triglyceride in the even-numbered fast protein liquid chromatography fractions and in plasma samples were measured using commercial kits (Stanbio Laboratory, Boerne, Tex.).

The subject of test [2] is LDLR−/− mice. In words: Atherosclerotic lesion quantification in LDLR−/− mice fed an atherogenic diet. In kind it is in vivo. Particulars: 8 weeks. On the procedure: as §1
The mice were then perfused transcardially with PBS and then paraformaldehyde. The hearts and upper vasculatures were removed and prepared for histology as described in Reardon et al., Arterioscler Thromb Vasc Biol 2001, 21:1011-1016.
Lesions in the innominate artery were quantified using 4 digitally captured oil red O-stained 10 μm sections, separated by 100 μm and located 150-450 μm distal to the branch point of the innominate artery from the aortic arch. Lesions in the ascending thoracic aorta were assessed from three sections separated by 100 μm and located 100-300 μm below the apex of the lesser curvature of the aortic arch. Aortic sinus lesions were evaluated from 3 sections, separated by 100 μm and beginning at the site of appearance of the coronary artery. OpenLab software version 3.1.5 was used in the quantification.

Setting [3] is: daily gavage 3 or 5 mg/kg, vs vehicle.

On to `CC(/C=C/C(O)(C(F)(F)F)C(F)(F)F)C1CCC2C3C[C@H](O)[C@@H]4C[C@H](O)CCC4(C)C3CCC12C` (some centres unmarked) [Compound 1], for which the “LXR agonist activity (fold activation of firefly luciferase reporter)” value with human LXRα or LXRβ is on record as “very effective LXR agonist”. For the same molecule, in the test on LDLR−/− mice [1] (3 mg/kg daily gavage), the HDL cholesterol level result is reported as “not”, the VLDL cholesterol level entry is “reduced” and the triglyceride levels result is “reduced”. Also, in the test on LDLR−/− mice [1] (5 mg/kg daily gavage), the HDL cholesterol level result was “not”, the LDL cholesterol level result is on record as “reduced”, the VLDL cholesterol level entry is recorded as “reduced” and the triglyceride levels entry is listed as “reduced”. Besides, in the test on LDLR−/− mice [1] (setting [3]), the “cholesterol level in the blood” value was “marked decrease” and the “triglyceride level in the blood” value is reported as “marked decrease”. The “mean atherosclerotic lesion area, aortic root” value in the test on LDLR−/− mice [2] (3 mg/kg/day) is on record as “significantly reduced”. Also, in the test on LDLR−/− mice [2] (5 mg/kg/day), the “atherosclerotic plaque size, ascending aorta arch” value is listed as “significantly reduced”; the “atherosclerotic plaque size, innominate artery” value is “significantly reduced”; the “mean atherosclerotic lesion area, aortic root” value was “significantly reduced”.
